Test results as given in the supplement of paper PMC10307832.

Experiments:
Test in all cases: relative viability (nuclei count vs DMSO), 5 days (fraction); higher = more cells survive
Entinostat + Crizotinib = compound: Nc1ccccc1NC(=O)c1ccc(CNC(=O)OCc2cccnc2)cc1 [Entinostat] + C[C@@H](Oc1cc(-c2cnn(C3CCNCC3)c2)cnc1N)c1c(Cl)ccc(F)c1Cl [Crizotinib] (partner 1 µM)
How it was run: (§1)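 Dosing by pin tool came one day after lung cancer cell lines were seeded in 1536-well plates, using either one drug or a fixed anchor-drug dose plus five library-drug doses (not always all listed) in √10 steps. After 5 days, nuclei were counted on 4× images. Relative viability is treated-well nuclei count divided by vehicle-well nuclei count, and values are medians of duplicate plates.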

SGI-1776 + Bortezomib = compound: CN1CCC(CNc2ccc3ncc(-c4cccc(OC(F)(F)F)c4)n3n2)CC1 [SGI-1776] + CC(C)C[C@H](NC(=O)[C@H](Cc1ccccc1)NC(=O)c1cnccn1)B(O)O [Bortezomib] (partner 0.002 µM)
How it was run: as §1

Entinostat + Lapatinib = compound: Nc1ccccc1NC(=O)c1ccc(CNC(=O)OCc2cccnc2)cc1 [Entinostat] + CS(=O)(=O)CCNCc1ccc(-c2ccc3ncnc(Nc4ccc(OCc5cccc(F)c5)c(Cl)c4)c3c2)o1 [Lapatinib] (partner 2 µM)
How it was run: as §1

Entinostat + Foretinib = compound: Nc1ccccc1NC(=O)c1ccc(CNC(=O)OCc2cccnc2)cc1 [Entinostat] + COc1cc2c(Oc3ccc(NC(=O)C4(C(=O)Nc5ccc(F)cc5)CC4)cc3F)ccnc2cc1OCCCN1CCOCC1 [Foretinib] (partner 0.25 µM)
How it was run: as §1

| Cell Line | relative viability (Entinostat + Crizotinib; first compound 0.02 µM) | relative viability (Entinostat + Crizotinib; first compound 0.06325 µM) | relative viability (Entinostat + Crizotinib; first compound 0.2 µM) | relative viability (Entinostat + Crizotinib; first compound 0.6325 µM) | relative viability (Entinostat + Crizotinib; first compound 2 µM) | relative viability (SGI-1776 + Bortezomib; first compound 0.08 µM) | relative viability (SGI-1776 + Bortezomib; first compound 0.8 µM) | relative viability (SGI-1776 + Bortezomib; first compound 2.53 µM) | relative viability (SGI-1776 + Bortezomib; first compound 8 µM) | relative viability (Entinostat + Lapatinib; first compound 0.02 µM) | relative viability (Entinostat + Lapatinib; first compound 0.06325 µM) | relative viability (Entinostat + Lapatinib; first compound 0.2 µM) | relative viability (Entinostat + Lapatinib; first compound 0.6325 µM) | relative viability (Entinostat + Lapatinib; first compound 2 µM) | relative viability (Entinostat + Foretinib; first compound 0.02 µM) | relative viability (Entinostat + Foretinib; first compound 0.06325 µM) | relative viability (Entinostat + Foretinib; first compound 0.2 µM) | relative viability (Entinostat + Foretinib; first compound 0.6325 µM) | relative viability (Entinostat + Foretinib; first compound 2 µM) |
| --- | --- | --- | --- | --- | --- | --- | --- | --- | --- | --- | --- | --- | --- | --- | --- | --- | --- | --- | --- |
| NCI-H520 | 0.735 | 0.613 | 0.779 | 0.413 | 0.251 | 0.859 | 0.776 | 0.716 | 0.22 | 1.03 | 0.946 | 0.864 | 0.776 | 0.301 | 0.686 | 0.941 | 0.803 | 0.683 | 0.626 |
| HCC-366 | 0.447 | 0.407 | 0.283 | 0.0613 | 0.0249 | 0.919 | 1.11 | 0.98 | 1.12 | 1.02 | 1.04 | 0.66 | 0.218 | 0.0452 | 0.994 | 0.992 | 0.685 | 0.265 | 0.0997 |
| NCI-H2087 | 0.716 | 0.672 | 0.818 | 0.559 | 0.467 | 0.772 | 0.802 | 0.982 | 0.722 | 1.03 | 0.792 | 0.861 | 0.536 | 0.54 | 1.18 | 1.04 | 0.89 | 0.352 | 0.256 |
| PC-3 [JPC-3] | 0.965 | 1.01 | 0.79 | 0.658 | 0.44 | 0.867 | 0.806 | 0.845 | 0.687 | 0.448 | 0.451 | 0.397 | 0.348 | 0.302 | 0.988 | 0.977 | 0.871 | 0.732 | 0.41 |
| HOP-62 | 0.951 | 1.03 | 0.812 | 0.618 | 0.288 | 0.862 | 0.914 | 0.74 | 0.632 | 1.12 | 0.994 | 0.907 | 0.532 | 0.323 | 1.11 | 0.983 | 0.995 | 0.609 | 0.356 |
| NCI-H2126 | 1.01 | 1.06 | 0.954 | 0.89 | 0.58 | 1.15 | 1.18 | 1.04 | 1.13 | 0.794 | 0.78 | 0.759 | 0.421 | 0.385 | 1.12 | 1.06 | 1.05 | 0.572 | 0.415 |
| IA-LM | 0.731 | 0.855 | 0.928 | 0.728 | 0.651 | 0.844 | 0.736 | 0.918 | 0.877 | 0.892 | 0.926 | 1.17 | 0.601 | 0.514 | 1.13 | 1.22 | 1.43 | 1.05 | 0.764 |
| RERF-LC-KJ | 0.844 | 0.75 | 0.754 | 0.431 | 0.233 | 1.1 | 1.08 | 0.956 | 1.04 | 0.775 | 0.794 | 0.816 | 0.476 | 0.321 | 0.853 | 0.856 | 0.84 | 0.516 | 0.285 |
| H3255 | 0.9 | 0.747 | 0.777 | 0.452 | 0.286 | 0.963 | 0.75 | 0.606 | 0.33 | 0.21 | 0.309 | 0.161 | 0.145 | 0.156 | 0.889 | 0.89 | 0.639 | 0.567 | 0.381 |
| EMC-BAC-2 | 0.812 | 0.702 | 0.708 | 0.522 | 0.368 | 1.06 | 1.01 | 1.1 | 1.04 | 0.873 | 0.956 | 0.901 | 0.682 | 0.499 | 1.03 | 0.938 | 0.814 | 0.608 | 0.513 |
| CAL-12T | 0.7 | 0.732 | 0.864 | 0.594 | 0.251 | 1.35 | 0.982 | 0.918 | 0.867 | 0.606 | 0.762 | 0.55 | 0.501 | 0.466 | 1.17 | 1.14 | 1.27 | 1.07 | 1.01 |
| NCI-H661 | 0.907 | 0.909 | 1.01 | 0.834 | 0.633 | 0.963 | 0.858 | 0.833 | 0.649 | 0.573 | 0.587 | 0.8 | 0.661 | 0.476 | 0.929 | 0.963 | 0.923 | 0.697 | 0.575 |
| EBC-1 | 0.177 | 0.191 | 0.215 | 0.202 | 0.159 | 0.6 | 0.548 | 0.514 | 0.304 | 0.213 | 0.211 | 0.208 | 0.181 | 0.184 | 0.0998 | 0.0994 | 0.101 | 0.0814 | 0.0684 |
| NCI-H1437 | 0.801 | 0.641 | 0.469 | 0.174 | 0.109 | 0.587 | 0.525 | 0.536 | 0.352 | 0.671 | 0.399 | 0.297 | 0.183 | 0.126 | 0.992 | 0.804 | 0.456 | 0.352 | 0.261 |
| PC-14 | 0.849 | 0.928 | 0.916 | 0.37 | 0.159 | 0.846 | 0.915 | 0.99 | 0.566 | 0.293 | 0.29 | 0.146 | 0.151 | 0.105 | 0.991 | 0.951 | 0.969 | 0.441 | 0.232 |
| NCI-H1651 | 0.877 | 0.9 | 0.878 | 0.807 | 0.721 | 0.976 | 0.923 | 0.874 | 0.889 | 0.816 | 0.905 | 0.925 | 0.726 | 0.217 | 0.817 | 0.855 | 0.851 | 0.632 | 0.394 |
| LC-2-ad | 0.521 | 0.4 | 0.36 | 0.296 | 0.241 | 1.06 | 0.976 | 1.03 | 0.987 | 0.975 | 0.904 | 0.907 | 0.334 | 0.113 | 0.907 | 0.905 | 0.723 | 0.512 | 0.338 |
